In PubChem BioAssay (NCI):
Several values for one entry are separate records, joined by “and”; a condition that tells them apart may be missing. Identical values can stand only once.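 Results reflect a 48-hour exposure of cells in 96-well plates to compound at five concentrations. GI50 = concentration required for 50% inhibition of growth. The concentration for full growth arrest is given as TGI.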

Tests used:
Test in all cases: DTP human tumour cell line panel, 48 h
786-0 renal = test system: 786-0 renal
A498 renal = test system: A498 renal
A549 NSCLC = test system: A549 NSCLC
ACHN renal = test system: ACHN renal
BT-549 breast = test system: BT-549 breast
CAKI-1 renal = test system: CAKI-1 renal
CCRF-CEM leukemia = test system: CCRF-CEM leukemia
COLO 205 colon = test system: COLO 205 colon
DU-145 prostate = test system: DU-145 prostate
EKVX NSCLC = test system: EKVX NSCLC
HCC-2998 colon = test system: HCC-2998 colon
HCT-116 colon = test system: HCT-116 colon
HCT-15 colon = test system: HCT-15 colon
HL-60(TB) leukemia = test system: HL-60(TB) leukemia
HOP-62 NSCLC = test system: HOP-62 NSCLC
HOP-92 NSCLC = test system: HOP-92 NSCLC
HS 578T breast = test system: HS 578T breast
HT29 colon = test system: HT29 colon
IGROV1 ovarian = test system: IGROV1 ovarian
K-562 leukemia = test system: K-562 leukemia
KM12 colon = test system: KM12 colon
LOX IMVI melanoma = test system: LOX IMVI melanoma
M14 melanoma = test system: M14 melanoma
MALME-3M melanoma = test system: MALME-3M melanoma
MCF7 breast = test system: MCF7 breast
MDA-MB-231 breast = test system: MDA-MB-231 breast
MDA-MB-435 = test system: MDA-MB-435
MOLT-4 leukemia = test system: MOLT-4 leukemia
NCI-H226 lung = test system: NCI-H226 lung
NCI-H23 lung = test system: NCI-H23 lung
NCI-H460 lung = test system: NCI-H460 lung
NCI-H522 lung = test system: NCI-H522 lung
NCI/ADR-RES ovarian = test system: NCI/ADR-RES ovarian
OVCAR-3 ovarian = test system: OVCAR-3 ovarian
OVCAR-4 ovarian = test system: OVCAR-4 ovarian
OVCAR-5 ovarian = test system: OVCAR-5 ovarian
OVCAR-8 ovarian = test system: OVCAR-8 ovarian
PC-3 prostate = test system: PC-3 prostate
RPMI-8226 leukemia = test system: RPMI-8226 leukemia
RXF 393 renal = test system: RXF 393 renal
SF-268 CNS = test system: SF-268 CNS
SF-295 CNS = test system: SF-295 CNS
SF-539 CNS = test system: SF-539 CNS
SK-MEL-2 melanoma = test system: SK-MEL-2 melanoma
SK-MEL-28 melanoma = test system: SK-MEL-28 melanoma
SK-MEL-5 melanoma = test system: SK-MEL-5 melanoma
SK-OV-3 ovarian = test system: SK-OV-3 ovarian
SN12C renal = test system: SN12C renal
SNB-19 CNS = test system: SNB-19 CNS
SNB-75 CNS = test system: SNB-75 CNS
SR leukemia = test system: SR leukemia
SW-620 colon = test system: SW-620 colon
T-47D breast = test system: T-47D breast
TK-10 renal = test system: TK-10 renal
U251 CNS = test system: U251 CNS
UACC-257 melanoma = test system: UACC-257 melanoma
UACC-62 melanoma = test system: UACC-62 melanoma
UO-31 renal = test system: UO-31 renal

`CC1=C2C[C@H]3[C@@H](CC=C4C[C@@H](O)CC[C@@]43C)[C@@H]2CC[C@]12O[C@@H]1C[C@H](C)CN[C@H]1[C@H]2C` was tested, and the GI50 (786-0 renal) was 15.5 µM and 17.3 µM, the TGI (786-0 renal) was 50 µM and 33.4 µM and the GI50 (A498 renal) was 43.2 µM and 19.4 µM. The TGI (A498 renal) was 50 µM and 37.9 µM, the GI50 (A549 NSCLC) was 16.8 µM and 17.5 µM and the TGI (A549 NSCLC) was 50 µM and 39.4 µM. For the same compound, the GI50 (ACHN renal) was 10.4 µM and 18.7 µM, the TGI (ACHN renal) was 22.3 µM and 41.4 µM and the GI50 (BT-549 breast) was 31 µM and 52.1 µM. The TGI (BT-549 breast) was 50 µM and > 100 µM, the GI50 (CAKI-1 renal) was 29.2 µM and 20 µM and the TGI (CAKI-1 renal) was 50 µM and 44.5 µM. The GI50 (CCRF-CEM leukemia) was 22.6 µM and 23.4 µM, the TGI (CCRF-CEM leukemia) was 50 µM and 80 µM and the GI50 (COLO 205 colon) was 13.6 µM and 4.28 µM. For the same compound, the TGI (COLO 205 colon) was 38.6 µM and 19.1 µM, the GI50 (DU-145 prostate) was 27.9 µM and 25.8 µM and the TGI (DU-145 prostate) was 50 µM and 61.6 µM. For the same compound, the GI50 (EKVX NSCLC) was 51.9 µM, the TGI (EKVX NSCLC) was greater than 100 µM and the GI50 (HCC-2998 colon) was 16.9 µM and 21.6 µM. The TGI (HCC-2998 colon) was 50 µM and 39.4 µM, the GI50 (HCT-116 colon) was 10.1 µM and 16.6 µM and the TGI (HCT-116 colon) was 24.7 µM and 31.8 µM. For the same compound, the GI50 (HCT-15 colon) was 12.6 µM and 22.3 µM, the TGI (HCT-15 colon) was 49.4 µM and > 100 µM and the GI50 (HL-60(TB) leukemia) was 11.5 µM and 15.7 µM. The TGI (HL-60(TB) leukemia) was 50 µM and 55.1 µM, the GI50 (HOP-62 NSCLC) was 17.8 µM and 24.5 µM and the TGI (HOP-62 NSCLC) was 50 µM and 68.6 µM. The GI50 (HOP-92 NSCLC) was 21.6 µM, the TGI (HOP-92 NSCLC) was 57.9 µM and the GI50 (HS 578T breast) was > 50 µM and 35 µM. For the same compound, the TGI (HS 578T breast) was greater than 100 µM, the GI50 (HT29 colon) was 26.2 µM and the TGI (HT29 colon) was 50 µM. The GI50 (IGROV1 ovarian) was 40.5 µM and 17.5 µM, the TGI (IGROV1 ovarian) was 50 µM and 38.9 µM and the GI50 (K-562 leukemia) was 9.4 µM and 15.9 µM. For the same compound, the TGI (K-562 leukemia) was 34.7 µM and 40.2 µM, the GI50 (KM12 colon) was 41.3 µM and 23.4 µM and the TGI (KM12 colon) was 50 µM and 54.7 µM. For the same compound, the GI50 (LOX IMVI melanoma) was 10.5 µM and 16.9 µM, the TGI (LOX IMVI melanoma) was 31.8 µM and 33.5 µM and the GI50 (M14 melanoma) was > 50 µM and 19.6 µM. The TGI (M14 melanoma) was > 50 µM and 44.1 µM, the GI50 (MALME-3M melanoma) was 19.3 µM and 17.6 µM and the TGI (MALME-3M melanoma) was 50 µM and 36 µM. For the same compound, the GI50 (MCF7 breast) was 29 µM and 23.7 µM, the TGI (MCF7 breast) was 50 µM and 55.9 µM and the GI50 (MDA-MB-231 breast) was 17.8 µM and 23.7 µM. The TGI (MDA-MB-231 breast) was 42.6 µM and 49.7 µM, the GI50 (MDA-MB-435) was > 50 µM and 17.2 µM and the TGI (MDA-MB-435) was > 50 µM and 42.1 µM. The GI50 (MOLT-4 leukemia) was 17.7 µM and 20.5 µM, the TGI (MOLT-4 leukemia) was 50 µM and 58.6 µM and the GI50 (NCI-H226 lung) was > 50 µM and 23.1 µM. For the same compound, the TGI (NCI-H226 lung) was > 50 µM and 55.3 µM, the GI50 (NCI-H23 lung) was 29 µM and 29.7 µM and the TGI (NCI-H23 lung) was 50 µM and > 100 µM. The GI50 (NCI-H460 lung) was 21.8 µM and 19.9 µM, the TGI (NCI-H460 lung) was 50 µM and 44.4 µM and the GI50 (NCI-H522 lung) was 13.6 µM and 21.2 µM. The TGI (NCI-H522 lung) was 44.7 µM and 39.7 µM, the GI50 (NCI/ADR-RES ovarian) was 38.5 µM and 20.3 µM and the TGI (NCI/ADR-RES ovarian) was 50 µM and 47.5 µM. The GI50 (OVCAR-3 ovarian) was 12.2 µM and 21 µM, the TGI (OVCAR-3 ovarian) was 42.8 µM and 43.2 µM and the GI50 (OVCAR-4 ovarian) was 32.1 µM and 18.8 µM. The TGI (OVCAR-4 ovarian) was 50 µM and 37.3 µM, the GI50 (OVCAR-5 ovarian) was 11.9 µM and 29.4 µM and the TGI (OVCAR-5 ovarian) was 50 µM and 89.6 µM. For the same compound, the GI50 (OVCAR-8 ovarian) was 11.6 µM and 20.2 µM, the TGI (OVCAR-8 ovarian) was 50 µM and 48.5 µM and the GI50 (PC-3 prostate) was 22.1 µM and 20.2 µM. The TGI (PC-3 prostate) was 50 µM and 59.6 µM, the GI50 (RPMI-8226 leukemia) was 8.84 µM and 18.1 µM and the TGI (RPMI-8226 leukemia) was 31.8 µM and 46.2 µM. For the same compound, the GI50 (RXF 393 renal) was 6.01 µM, the TGI (RXF 393 renal) was 27.9 µM and 12.3 µM and the GI50 (SF-268 CNS) was 21.2 µM and 23.7 µM. For the same compound, the TGI (SF-268 CNS) was 50 µM and 50.9 µM, the GI50 (SF-295 CNS) was 40.8 µM and 19 µM and the TGI (SF-295 CNS) was 50 µM and 40.2 µM. For the same compound, the GI50 (SF-539 CNS) was 21.3 µM and 20 µM, the TGI (SF-539 CNS) was 50 µM and 37.8 µM and the GI50 (SK-MEL-2 melanoma) was 12.3 µM and 23.4 µM. The TGI (SK-MEL-2 melanoma) was 38.4 µM and 51.6 µM, the GI50 (SK-MEL-28 melanoma) was > 50 µM and 48.5 µM and the TGI (SK-MEL-28 melanoma) was greater than 100 µM. The GI50 (SK-MEL-5 melanoma) was > 50 µM and 21.7 µM, the TGI (SK-MEL-5 melanoma) was > 50 µM and 53.5 µM and the GI50 (SK-OV-3 ovarian) was 14.2 µM and 13.9 µM. For the same compound, the TGI (SK-OV-3 ovarian) was 28.2 µM and 34.7 µM, the GI50 (SN12C renal) was 25.6 µM and 18.3 µM and the TGI (SN12C renal) was 50 µM and 47.4 µM. For the same compound, the GI50 (SNB-19 CNS) was 22.6 µM and 20.7 µM, the TGI (SNB-19 CNS) was 50 µM and 52.6 µM and the GI50 (SNB-75 CNS) was > 50 µM and 18.8 µM. The TGI (SNB-75 CNS) was > 50 µM and 42.7 µM, the GI50 (SR leukemia) was 3.42 µM and the TGI (SR leukemia) was 21.9 µM. The GI50 (SW-620 colon) was > 50 µM and 32.9 µM, the TGI (SW-620 colon) was greater than 100 µM and the GI50 (T-47D breast) was 13.3 µM and 16.7 µM. For the same compound, the TGI (T-47D breast) was 32.8 µM and 34.9 µM, the GI50 (TK-10 renal) was 7.17 µM and 14.2 µM and the TGI (TK-10 renal) was 25.9 µM and 34.1 µM. The GI50 (U251 CNS) was 7.96 µM and 18.6 µM, the TGI (U251 CNS) was 18.3 µM and 39.6 µM and the GI50 (UACC-257 melanoma) was 20.3 µM and 17.3 µM. For the same compound, the TGI (UACC-257 melanoma) was 50 µM and 33.1 µM, the GI50 (UACC-62 melanoma) was 24.6 µM and 21.1 µM and the TGI (UACC-62 melanoma) was 50 µM and 43.7 µM. The GI50 (UO-31 renal) was 11.5 µM and 19 µM and the TGI (UO-31 renal) was 35.9 µM and 37.2 µM.
